Laboratory results from ChEMBL document CHEMBL1146367, “Substituted thiophene-anthranilamides as potent inhibitors of human factor Xa” (Bioorg Med Chem, 2007).

Experiments:
[1] = molecular target: Prothrombin (Homo sapiens, UniProt P00734); assay: Binding affinity to human thrombin after 10 mins; settings: read-out: Ki app
[2] = molecular target: Coagulation factor X (Homo sapiens, UniProt P00742); assay: Binding affinity to human factor 10a after 10 mins; settings: read-out: Ki app
[3] = Binding affinity to bovine trypsin after 10 mins; parameters: species or system Bos taurus; settings: read-out: Ki app
[4] = test system: Plasma; assay: Anticoagulant activity in human plasma assessed as concentration required to double prothrombin time; type: functional, cell-free
[5] = Dissociation constant, pKa of the compound; type: physicochemical
[6] = Bioavailability in Beagle dog at 10 mg/kg, po; type: ADME, organism-based, Canis lupus familiaris; settings: in vivo
[7] = Clearance in Beagle dog at 1 mg/kg, iv; type: ADME, organism-based, Canis lupus familiaris; parameters: dose 1 mg/kg, route intravenous; settings: in vivo
[8] = Plasma concentration in Beagle dog at 10 mg/kg, po; type: ADME, organism-based, Canis lupus familiaris; parameters: dose 10 mg/kg, route oral
[9] = Volume of distribution at steady state in Beagle dog at 1 mg/kg, iv; type: ADME, organism-based, Canis lupus familiaris; parameters: dose 1 mg/kg, route intravenous; settings: in vivo, read-out: Vdss
[10] = Half life in Beagle dog at 1 mg/kg, iv; type: ADME, organism-based, Canis lupus familiaris; parameters: dose 1 mg/kg, route intravenous; settings: in vivo

Sequence of Coagulation factor X (P00742 41-179 limits assumed): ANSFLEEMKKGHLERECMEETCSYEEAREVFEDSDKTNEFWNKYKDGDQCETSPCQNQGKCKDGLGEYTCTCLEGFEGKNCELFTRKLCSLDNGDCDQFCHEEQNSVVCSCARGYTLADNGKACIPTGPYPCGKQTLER
Sequence of Coagulation factor X (P00742 235-488 limits assumed): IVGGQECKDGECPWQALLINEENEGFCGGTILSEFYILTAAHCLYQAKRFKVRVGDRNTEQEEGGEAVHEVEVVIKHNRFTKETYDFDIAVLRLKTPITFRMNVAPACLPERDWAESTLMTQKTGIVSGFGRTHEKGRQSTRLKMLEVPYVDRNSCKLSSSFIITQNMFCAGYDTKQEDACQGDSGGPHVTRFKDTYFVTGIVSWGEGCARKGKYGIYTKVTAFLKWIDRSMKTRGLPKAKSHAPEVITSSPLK

SMILES	Ki [1] [nM]	Ki [2] [nM]	Ki [3] [nM]	Cp [4] [µM]	pKa [5]	bioavailability [6] [%]	clearance [7] [mL/min/kg]	Cmax [8] [µM]	Vd [9] [L/kg]	half-life [10] [h]
CN(Cc1csc(C(=O)Nc2ccc(Cl)cc2C(=O)Nc2ccc(Cl)cc2)c1Cl)CC(O)CO (centres undefined)	990	1.4	> 5000	11						
CSCc1csc(C(=O)Nc2ccc(Cl)cc2C(=O)Nc2ccc(Cl)cc2)c1Cl	> 5000	0.8	> 5000	> 200						
CCN1CCN(Cc2csc(C(=O)Nc3ccc(Cl)cc3C(=O)Nc3ccc(Cl)cc3)c2Cl)CC1	> 5000	1.6	> 5000	12						
CN(CCO)Cc1csc(C(=O)Nc2ccc(Cl)cc2C(=O)Nc2ccc(Cl)cc2)c1Cl	830	0.8	> 5000	7						
Cc1c(CN2CCN(C)CC2)sc(C(=O)Nc2ccc(Cl)cc2C(=O)Nc2ccc(Cl)cc2)c1Cl	1500	10	> 5000	58						
CN(C)CCSCc1csc(C(=O)Nc2ccc(Cl)cc2C(=O)Nc2ccc(Cl)cc2)c1Cl	560	2.7	> 5000	19	8.9					
CCOC(=O)CN(C)Cc1csc(C(=O)Nc2ccc(Cl)cc2C(=O)Nc2ccc(Cl)cc2)c1Cl	2300	5.2	> 5000	160						
O=C(Nc1ccc(Cl)cc1)c1cc(Cl)ccc1NC(=O)c1scc(Cn2ncnn2)c1Cl	> 5000	2	> 5000	63						
CN1CCN(Cc2ccc3c(Cl)c(C(=O)Nc4ccc(Cl)cc4C(=O)Nc4ccc(Cl)cc4)sc3c2)CC1	> 5000	21	> 5000							
O=C(Nc1ccc(Cl)cc1)c1cc(Cl)ccc1NC(=O)c1scc(Cn2ccnc2)c1Cl	1000	1.9	> 5000	18						
O=C(O)CN1CCN(Cc2ccc3c(Cl)c(C(=O)Nc4ccc(Cl)cc4C(=O)Nc4ccc(Cl)cc4)sc3c2)CC1	> 5000	9.5	> 5000							
O=C(Nc1ccc(Cl)cc1)c1cc(Cl)ccc1NC(=O)c1scc(Cn2nccn2)c1Cl	3300	3.5	> 5000	83						
O=C(Nc1ccc(Cl)cc1)c1cc(Cl)ccc1NC(=O)c1scc(CNCCOCCO)c1Cl	3200	3.4	> 5000	20						
O=C(Nc1ccc(Cl)cc1)c1cc(Cl)ccc1NC(=O)c1scc(COCC(O)CO)c1Cl (centres undefined)	2400	5.7	> 5000	30						
O=C(Nc1ccc(Cl)cc1)c1cc(Cl)ccc1NC(=O)c1scc(CN2CCSCC2)c1Cl	> 5000	4.8	> 5000	400						
O=C(Nc1ccc(Cl)cc1)c1cc(Cl)ccc1NC(=O)c1scc(CN2CCOCC2)c1Cl	2300	6.2	> 5000	59						
CN(C)Cc1ccc2c(Cl)c(C(=O)Nc3ccc(Cl)cc3C(=O)Nc3ccc(Cl)cc3)sc2c1	> 5000	14	> 5000							
O=C(Nc1ccc(Cl)cc1)c1cc(Cl)ccc1NC(=O)c1sc2ccccc2c1Cl	> 5000		> 5000							
Cc1c(C(=O)Nc2ccc(Cl)cc2C(=O)Nc2ccc(Cl)cc2)sc2ccccc12	> 5000	0.82	> 5000							
COCCOCCOCc1csc(C(=O)Nc2ccc(Cl)cc2C(=O)Nc2ccc(Cl)cc2)c1Cl	3600	10	> 5000	95						
CC(=O)N1CCN(Cc2csc(C(=O)Nc3ccc(Cl)cc3C(=O)Nc3ccc(Cl)cc3)c2Cl)CC1	4400	6	> 5000							
Cc1cc(Cl)c(C(=O)Nc2ccc(Cl)cc2C(=O)Nc2ccc(Cl)cc2)s1	> 5000	24	> 5000							
CN(C)CCCN(C)Cc1csc(C(=O)Nc2ccc(Cl)cc2C(=O)Nc2ccc(Cl)cc2)c1Cl	190	0.6	> 5000	2.9						
O=C(Nc1ccc(Cl)cc1)c1cc(Cl)ccc1NC(=O)c1scc(CNCCCn2ccnc2)c1Cl	1800	4.6	> 5000	24						

SMILES	Ki [1] [nM]	Ki [2] [nM]	Ki [3] [nM]	Cp [4] [µM]	pKa [5]	bioavailability [6] [%]	clearance [7] [mL/min/kg]	Cmax [8] [µM]	Vd [9] [L/kg]	half-life [10] [h]
CN(C)Cc1c(C(=O)Nc2ccc(Cl)cc2C(=O)Nc2ccc(Cl)cc2)sc2ccccc12	1200	9	> 5000							
Cc1ccc2c(Cl)c(C(=O)Nc3ccc(Cl)cc3C(=O)Nc3ccc(Cl)cc3)sc2c1	> 5000	0.95	> 5000							
Cc1sc(C(=O)Nc2ccc(Cl)cc2C(=O)Nc2ccc(Cl)cc2)c(Cl)c1CN1CCN(C)CC1	4400	12	> 5000	25						
CN1CCC(N(C)Cc2csc(C(=O)Nc3ccc(Cl)cc3C(=O)Nc3ccc(Cl)cc3)c2Cl)CC1	310	0.38	> 5000	3.2						
COCCOCc1csc(C(=O)Nc2ccc(Cl)cc2C(=O)Nc2ccc(Cl)cc2)c1Cl	> 5000	12	> 5000	110						
CC1(C)OCC(COCc2csc(C(=O)Nc3ccc(Cl)cc3C(=O)Nc3ccc(Cl)cc3)c2Cl)O1 (centres undefined)	> 5000	20	> 5000							
O=C(Nc1ccc(Cl)cc1)c1cc(Cl)ccc1NC(=O)c1sc(CN2CCOCC2)cc1Cl	> 5000	34	> 5000	> 500						
O=C(Nc1ccc(Cl)cc1)c1cc(Cl)ccc1NC(=O)c1scc(Cn2cncn2)c1Cl	2400	1.6	> 5000	18						
CN1CCN(Cc2cc(Cl)c(C(=O)Nc3ccc(Cl)cc3C(=O)Nc3ccc(Cl)cc3)s2)CC1	1000	5.6	> 5000	13						
CN1CCN(Cc2c(C(=O)Nc3ccc(Cl)cc3C(=O)Nc3ccc(Cl)cc3)sc3ccccc23)CC1	1000	20	> 5000							
O=C(Nc1ccc(Cl)cc1)c1cc(Cl)ccc1NC(=O)c1scc(Cn2cnnn2)c1Cl	> 5000	1.7	> 5000	29						
Cc1csc(C(=O)Nc2ccc(Cl)cc2C(=O)Nc2ccc(Cl)cc2)c1Cl	> 5000	18	> 5000							
O=C(Nc1ccc(Cl)cc1)c1cc(Cl)ccc1NC(=O)c1scc(Cn2cccn2)c1Cl	550	2.1	> 5000	49						
CCCNCc1sc(C(=O)Nc2ccc(Cl)cc2C(=O)Nc2ccc(Cl)cc2)c(Cl)c1CNCCC	1500	7.5	> 5000	19						
CN(CCOCCO)Cc1csc(C(=O)Nc2ccc(Cl)cc2C(=O)Nc2ccc(Cl)cc2)c1Cl	1100	1.5	> 5000	8.8						
CN1CCN(Cc2csc(C(=O)Nc3ccc(Cl)cc3C(=O)Nc3ccc(Cl)cc3)c2Cl)CC1	910	1	> 5000	12		41	5	6.3	0.7	2
CN(CCN1CCCC1)Cc1csc(C(=O)Nc2ccc(Cl)cc2C(=O)Nc2ccc(Cl)cc2)c1Cl	160	0.3	> 5000	5						
Cc1cccc2sc(C(=O)Nc3ccc(Cl)cc3C(=O)Nc3ccc(Cl)cc3)c(Cl)c12	> 5000	> 5000	> 5000							
C[S+]([O-])Cc1csc(C(=O)Nc2ccc(Cl)cc2C(=O)Nc2ccc(Cl)cc2)c1Cl (centres undefined)	970	0.4	> 5000	5.6						
CS(=O)(=O)Cc1csc(C(=O)Nc2ccc(Cl)cc2C(=O)Nc2ccc(Cl)cc2)c1Cl	> 5000	2.1	> 5000	14						
CCN(CC)CCN(C)Cc1csc(C(=O)Nc2ccc(Cl)cc2C(=O)Nc2ccc(Cl)cc2)c1Cl	120	0.52	> 5000	3.9						
O=C(Nc1ccc(Cl)cc1)c1cc(Cl)ccc1NC(=O)c1scc(Cn2ccnn2)c1Cl	2700	1.4	> 5000	15						
CN(C)CCN(C)Cc1csc(C(=O)Nc2ccc(Cl)cc2C(=O)Nc2ccc(Cl)cc2)c1Cl	160	0.45	> 5000	4.6						
O=C(Nc1ccc(Cl)cc1)c1cc(Cl)ccc1NC(=O)c1sc(Cn2ccnc2)cc1Cl	510	7.2	> 5000	24						
